Experimental data: paper PMC5520944 (Cell Death & Disease, 2017)
Structures can show the parent of a compound that is named as a salt.

Columns and labels:
Molm13 = test: cells; parameters: species or system Jurkat FADD-/-, HT-29, MV4-11 or Molm13; protection from induced necroptosis, cell death by PI staining and flow cytometry; conditions: Homo sapiens, MOLM-13; BV6 + zVAD; inhibition of induced cell death
Experimental: Figure 2 Sorafenib inhibits TNF-induced RIPK1-dependent cell death in both murine and human cell lines and rescues AML cells from Smac mimetic-induced necroptosis. […] (c,d) HT-29 and Jurkat FADD−/− cells were pretreated for 1 h with DMSO, Nec-1 or Sorafenib (concentrations as indicated) and stimulated for 6 h with 30 ng/ml hTNF, 1 μM BV6 and 30 μM zVAD (HT-29) or stimulated for 10 h with 100 ng/ml hTNF (Jurkat FADD−/−). (a-d) Data were normalized to DMSO-treated control cells and represent the mean value±S.E.M. of three independent experiments. Toxic concentrations were removed from the analysis. L929sAhFas and MEF cells were stained with Hoechst and PI and percentage PI-positive nuclei was determined using high-content image analysis (BD pathway Bioimager). For HT-29 and Jurkat FADD−/− cells, cell death was determined by PI staining and flow cytometry. […] Cell death in AML cells was determined by PI staining and flow cytometry. Mean and S.D. of three independent experiments performed in triplicate are shown Supplementary materials and methods Immunoblotting. After treatments, cells were washed twice with PBS and lysed with Laemmli buffer (2x) directly or with NP-40 lysis buffer (150 mM NaCl, 1% NP-40, 10% glycerol, 10 mM Tris-HCl pH 8) supplemented with EDTA-free protease inhibitor cocktail tablets (Roche Diagnostics, Basel, Switzerland, #11873580001) and phosphatase inhibitor cocktail tablets (Roche Diagnostics, #04906837001). After lysis with NP-40 lysis buffer, lysates were kept 10 minutes on ice and centrifugated in a microcentrifuge (10 min, 13.000 rpm, 4°C). Supernatant was used for SDS-PAGE and immunoblotting. FACS analysis. FACS analysis was used to measure dying HT-29, Jurkat FADD-/- and AML cells. Treated HT-29 cells were harvested, washed with PBS and incubated with Annexin V binding buffer (BD Biosciences, 556454) containing 7-AAD and Annexin V-FITC for 15 min according to the manufacturer’s protocol. FACSCalibur^TM Flow Cytometer (BD Biosciences) and CellQuest Pro software were used to perform experiments and analyze data respectively.

L929sAhFas = test: cells; parameters: high-content necroptosis screen, percentage PI-positive nuclei as percent of DMSO plus stimulus control; conditions: mTNF-induced cell death, validation screen; read-out: Validation screen IC50 (µM) (TNF)
Description: To identify novel inhibitors or regulators of necroptosis, 500 small compounds from libraries targeting autophagy, kinases, phosphatases, proteases and redox balance were screened for their ability to block TNF-induced necroptosis in murine L929sAhFas cells. Three conditions were used to induce necroptosis in L929 cells: TNF alone, TNF+TAK1 inhibitor (TAK1i) and TNF+zVAD-fmk, a pan-caspase inhibitor. Inhibition of TAK1 or caspases sensitizes to necroptosis.[13], [32] Necroptosis, measured as the percentage of PI-positive nuclei normalized to the plate-specific DMSO control, was determined for each compound (Supplementary Figure 1A). Z’ values for the TNF- and TNF+TAK1i-induced cell death assay were 0.498 and 0.919, respectively (Supplementary Figures 2A and B), indicating good assay performance. Sorafenib was identified as an effective inhibitor of both TNF- and TNF+TAK1i-induced necroptosis (Figure 1a). […] In an independent screening with 437 FDA-approved drugs and TNF+zVAD-fmk as necroptosis trigger in L929 cells (Supplementary Figure 1B), Sorafenib was also shown to be a potent inhibitor (Figure 1b). […] After compound treatment, L929sAhFas (a) or L929 (b) cells were stimulated with mTNF (T), mTNF+Tak1i (TiT) or mTNF+zVAD (zVT) (Supplementary Figure 1A and B). (a) Cell death percentage (% PI-positive nuclei) or cell loss was calculated as percent of control (DMSO+stimulus). Green points marked by the green dotted line represent a selection of kinase inhibitors from the screening on L929sAhFas cells (Supplementary Table 1), that are only slightly protective in the TNF-stimulated condition. (b) Cell loss (luminescence-based readout for ATP) was calculated as percent of control (DMSO+stimulus). […] In stimulated conditions, % PI-positive nuclei was determined as % of DMSO control. Data represent mean values±S.E.M. of two independent experiments. Cells were stained with Hoechst and PI and percentage PI-positive nuclei was determined using high-content image analysis (BD pathway Bioimager). (d) L929sAhFas cells were treated with Sorafenib (concentration as indicated) for 24 h. Then, stimulus was removed, 50 cells/condition seeded and colonies counted with crystal violet staining after 10 days incubation. Quantification was performed using ImageJ. n=2, a representative experiment is shown Legends supplementary figures Supplementary Figure S1. Schemes of workflow screening assays in L929 cell lines. (A) Scheme of the workflow of a high-content screening assay on L929sAhFas cells using mTNF (T) and mTNF+Tak1i ((5Z)-7-Oxozeaenol) (TiT) to induce necroptotic cell death. Nec-1 and zVAD-fmk were used as protective and sensitizing benchmarks, respectively, on all plates. (B) Scheme of the workflow of a CellTiter-Glo luminescent cell viability screening assay on L929 cells using mTNF+zVAD (zVT) to induce necroptotic cell death. Supplementary Figure S2. Z’ calculation for cell death screening assays in L929 cells. (A) Z’ calculation for cell death screening assay (Fig. 1A) in mTNF-stimulated L929sAhFas cells. (B) Z’ calculation for cell death screening assay (Fig. 1A) in L929sAhFas cells stimulated with mTNF + Taki.

Question: For `CNC(=O)c1cc(Oc2ccc(NC(=O)Nc3ccc(Cl)c(C(F)(F)F)c3)cc2)ccn1` [Sorafenib tosylate], which IC50 (Molm13) is on record?
Answer: The IC50 was at most 0.03 µM.

Question: And the IC50 (L929sAhFas)?
Answer: Its IC50 is 3.25 µM.
